Measurements: patent publication US20180228720A1, “MELANOGENESIS INHIBITOR” (TAKASAGO INTERNATIONAL CORPORATION, priority 2015, published 2018)

Columns and labels:
B-16 melanoma cells = test: Evaluation for melanin production-inhibitory activity against pigment cells; type: cell-based; conditions: cultured 4 days with sample, relative to negative control
Description: With respect to the components (compounds) of Examples 1 to 3 and Reference Example 1 shown in Table 1, the following test was performed, thereby studying the evaluation for melanin production-inhibitory activity.
In a plastic culture flask (25 cm^2), B-16 melanoma cells in a number of 1×10^5 were seeded and cultured in a 10% serum-containing DMEM medium (manufactured by Nippon Suisan Kaisha, Ltd.) in the presence of 5% carbon dioxide at 37° C. One day after the culture, an evaluation sample diluted with ethanol was added, and the cells were further cultured for 4 days. After completion of the culture, the medium was removed, and the cells were rinsed with PBS (phosphate buffer solution). Thereafter, the cells were detached from the plate by using a medium containing trypsin and EDTA (ethylenediaminetetraacetic acid) and harvested by means of centrifugation. The resulting cells were rinsed three times with 1 mL of 5% trichloroacetic acid controlled at 4° C., rinsed twice with 1 mL of an ethanol/diethyl ether (3/1) solution, and then rinsed once with 1 mL of diethyl ether. After drying, 1 mL of 2N sodium hydroxide was added to dissolve the cells at 60° C. After allowing the solution to stand for cooling, an absorbance at 415 nm was measured, thereby measuring the amount of melanin. Each measured value was calculated as a relative value (%) relative to a value of a negative control in which the evaluation sample was not exposed. The evaluation was performed by three times repetition.

[1] = system: melanocyte-containing human three-dimensional cultured epidermal model, LabCyte MELANO-MODEL 24; test: Skin-whitening activity using melanocyte-containing human three-dimensional cultured epidermal tissue (amount of melanin, number of living cells by MTT); type: cell-based; conditions: sample 0.10% (positive control), 2 weeks culture, relative to negative control
Description: A melanocyte-containing human three-dimensional cultured epidermal model, LabCyte […]-MODEL 24 (manufactured by Japan Tissue Engineering Co., Ltd.) was cultured in accordance with an instruction manual. That is, a culture cup having a human cultured epidermis charged therein was soaked in 1.5 mL of an improved melanin production-promoting medium, and an evaluation sample was added in the cup and exposed, followed by culture at 37° C. for 2 weeks in the presence of 5% carbon dioxide. The medium and the evaluation sample were exchanged once every two to three days. After completion of the culture, the number of living cells and the amount of melanin were measured according to the MTT assay by a method described in the instruction manual. Each measured value was calculated as a relative value (%) relative to a value of a negative control in which the evaluation sample was not exposed. The evaluation was performed by three times repetition.

melanin production = conditions: background art, Patent Documents 2 to 4; cited from earlier work

OC[C@H]1O[C@@H](Oc2ccc(O)cc2)[C@H](O)[C@@H](O)[C@@H]1O [Arbutin]
Melanin inhibition ratio (%) (B-16 melanoma cells; 3.13 μg/mL): 39%
Melanin inhibition ratio (%) (B-16 melanoma cells; 6.25 μg/mL): 50%
Melanin inhibition ratio (%) (B-16 melanoma cells; 12.5 μg/mL): 71%

O=c1cc(CO)occ1O [Kojic acid]
Number of living cells (%) ([1]; MTT assay): 92.3 ± 8.8%
Amount of melanin (%) [1]: 48.4 ± 4.0%

C[C@@H]1CC[C@H]2C(C)(C)[C@H]3C[C@@]12CC[C@@]3(C)O [cedrol]
Effect on melanin production (in words) (melanin production): exhibits a melanin production-inhibitory effect

C=CC(C)(O)CCC=C(C)CCC=C(C)C (stereo not shown) [nerolidol]
Effect on melanin production (in words) (melanin production): exhibits a melanin production-inhibitory effect
